ChEMBL document CHEMBL1201862, “PubChem BioAssay data set” (2004)
Calls of active or inactive are those of the source.

How the values were obtained:
Mu-type opioid receptor = Mu-type opioid receptor (Homo sapiens, UniProt P35372); format: functional, cell-based;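 also: U2OS cells with beta-arrestin recruitment to OPRM1 by beta-gal complementation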
[1] = molecular target: 5-hydroxytryptamine receptor 2A (Mus musculus, UniProt P35363); format: functional, cell-based;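 also: CHO-K1 cells with tagged receptor and beta-arrestin; agonist potency measured as compound-induced activation of the receptor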
5-hydroxytryptamine receptor 2A, sequence (P35363 whole entry): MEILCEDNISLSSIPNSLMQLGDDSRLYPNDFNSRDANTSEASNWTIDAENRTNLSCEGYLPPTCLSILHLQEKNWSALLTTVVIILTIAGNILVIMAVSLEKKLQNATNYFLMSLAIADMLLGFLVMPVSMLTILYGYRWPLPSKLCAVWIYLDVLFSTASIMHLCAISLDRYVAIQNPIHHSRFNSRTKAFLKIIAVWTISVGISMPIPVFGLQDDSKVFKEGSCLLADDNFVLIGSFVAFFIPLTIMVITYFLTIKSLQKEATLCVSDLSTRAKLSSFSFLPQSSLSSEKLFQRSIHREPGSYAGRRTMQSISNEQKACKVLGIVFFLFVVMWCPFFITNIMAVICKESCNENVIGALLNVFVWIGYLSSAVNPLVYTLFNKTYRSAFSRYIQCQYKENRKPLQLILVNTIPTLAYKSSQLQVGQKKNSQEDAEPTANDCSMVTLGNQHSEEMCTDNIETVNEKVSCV

Beta-galactosidase = Beta-galactosidase (Escherichia coli, UniProt Q8VNN2); test: Dose response counterscreen for EBI2 assay utilizing the enzyme, b-galactosidase.; format: functional
Beta-galactosidase, sequence (Q8VNN2 whole entry): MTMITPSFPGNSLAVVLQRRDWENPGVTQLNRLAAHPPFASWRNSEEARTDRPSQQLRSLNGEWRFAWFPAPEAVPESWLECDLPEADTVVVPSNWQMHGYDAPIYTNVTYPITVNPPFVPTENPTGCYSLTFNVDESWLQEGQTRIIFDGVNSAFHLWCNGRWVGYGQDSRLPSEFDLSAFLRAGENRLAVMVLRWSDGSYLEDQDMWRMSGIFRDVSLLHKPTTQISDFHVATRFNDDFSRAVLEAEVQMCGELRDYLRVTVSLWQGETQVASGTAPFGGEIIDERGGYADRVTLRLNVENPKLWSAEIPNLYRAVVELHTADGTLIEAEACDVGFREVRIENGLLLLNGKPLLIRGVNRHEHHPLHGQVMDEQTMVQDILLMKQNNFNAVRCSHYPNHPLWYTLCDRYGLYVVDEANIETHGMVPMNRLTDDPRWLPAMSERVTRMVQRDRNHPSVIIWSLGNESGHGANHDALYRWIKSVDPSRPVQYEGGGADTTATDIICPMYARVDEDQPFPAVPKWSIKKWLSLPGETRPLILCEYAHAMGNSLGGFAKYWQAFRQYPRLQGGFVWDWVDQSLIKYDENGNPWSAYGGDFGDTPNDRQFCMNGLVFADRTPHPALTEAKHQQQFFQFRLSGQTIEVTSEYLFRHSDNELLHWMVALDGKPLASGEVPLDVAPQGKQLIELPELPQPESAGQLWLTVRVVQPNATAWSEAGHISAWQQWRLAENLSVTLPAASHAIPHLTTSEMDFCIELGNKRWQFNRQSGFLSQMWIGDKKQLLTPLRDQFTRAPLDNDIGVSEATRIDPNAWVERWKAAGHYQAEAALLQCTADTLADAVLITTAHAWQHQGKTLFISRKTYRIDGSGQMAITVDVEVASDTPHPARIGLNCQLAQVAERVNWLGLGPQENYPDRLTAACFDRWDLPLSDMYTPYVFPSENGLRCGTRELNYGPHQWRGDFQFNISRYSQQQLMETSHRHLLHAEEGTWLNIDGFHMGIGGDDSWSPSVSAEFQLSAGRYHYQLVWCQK

[2] = molecular target: SWI/SNF-related matrix-associated actin-dependent regulator of chromatin subfamily A member 2 (Homo sapiens, UniProt P51531); test: Luminescence-based cell-based high throughput dose response assay to identify activators of the function of SWI/SNF related, matrix associated, actin dependent regulator of chromatin, subfamily a, member 2 (SMARCA2, BRM).; format: functional
SWI/SNF-related matrix-associated actin-dependent regulator of chromatin subfamily A member 2, sequence (P51531 whole entry): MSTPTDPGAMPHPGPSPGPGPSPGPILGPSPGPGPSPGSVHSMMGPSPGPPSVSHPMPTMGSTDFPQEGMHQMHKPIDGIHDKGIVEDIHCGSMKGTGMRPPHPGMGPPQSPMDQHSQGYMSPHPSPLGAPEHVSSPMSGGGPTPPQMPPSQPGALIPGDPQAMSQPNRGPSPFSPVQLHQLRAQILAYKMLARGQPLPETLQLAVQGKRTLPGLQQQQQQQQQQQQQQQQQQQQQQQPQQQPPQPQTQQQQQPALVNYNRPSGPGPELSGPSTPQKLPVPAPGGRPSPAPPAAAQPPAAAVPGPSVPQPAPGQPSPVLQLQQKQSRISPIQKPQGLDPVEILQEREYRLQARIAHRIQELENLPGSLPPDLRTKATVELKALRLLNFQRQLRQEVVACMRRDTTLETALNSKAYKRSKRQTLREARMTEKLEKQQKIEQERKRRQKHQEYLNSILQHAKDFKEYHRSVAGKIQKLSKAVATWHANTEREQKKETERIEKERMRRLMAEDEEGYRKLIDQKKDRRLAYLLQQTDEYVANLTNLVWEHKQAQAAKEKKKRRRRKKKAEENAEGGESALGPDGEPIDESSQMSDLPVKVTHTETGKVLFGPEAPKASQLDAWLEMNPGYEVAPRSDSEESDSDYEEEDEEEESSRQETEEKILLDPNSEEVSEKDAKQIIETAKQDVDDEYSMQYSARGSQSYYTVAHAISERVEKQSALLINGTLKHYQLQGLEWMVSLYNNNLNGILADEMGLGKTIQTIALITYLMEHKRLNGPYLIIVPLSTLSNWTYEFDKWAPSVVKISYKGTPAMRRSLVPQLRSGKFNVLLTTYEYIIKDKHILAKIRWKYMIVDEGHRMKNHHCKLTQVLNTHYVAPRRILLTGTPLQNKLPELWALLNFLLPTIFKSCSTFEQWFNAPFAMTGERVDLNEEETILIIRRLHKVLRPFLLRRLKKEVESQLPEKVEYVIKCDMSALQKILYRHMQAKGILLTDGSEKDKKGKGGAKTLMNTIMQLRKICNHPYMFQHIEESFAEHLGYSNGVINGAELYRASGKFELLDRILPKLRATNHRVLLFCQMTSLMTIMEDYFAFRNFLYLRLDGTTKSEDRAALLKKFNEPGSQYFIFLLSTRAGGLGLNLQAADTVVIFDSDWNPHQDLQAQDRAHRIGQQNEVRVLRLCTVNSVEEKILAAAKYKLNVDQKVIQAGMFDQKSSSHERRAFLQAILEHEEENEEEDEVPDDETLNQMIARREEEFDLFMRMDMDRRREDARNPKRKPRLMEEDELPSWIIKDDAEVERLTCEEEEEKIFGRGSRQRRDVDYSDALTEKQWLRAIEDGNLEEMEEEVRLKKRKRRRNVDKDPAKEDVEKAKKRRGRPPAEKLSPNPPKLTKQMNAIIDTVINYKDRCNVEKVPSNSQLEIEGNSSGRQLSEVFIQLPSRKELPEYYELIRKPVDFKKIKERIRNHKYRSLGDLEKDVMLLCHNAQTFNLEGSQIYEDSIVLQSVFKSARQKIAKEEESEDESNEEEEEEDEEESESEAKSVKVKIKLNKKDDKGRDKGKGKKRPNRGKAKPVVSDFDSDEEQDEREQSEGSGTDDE

[3] = Luminescence Cell-Based Dose Response HTS to Identify Activators of Luciferase Translation or Activity in H4 […] Cells. [Related pubchem assays: 1829 (Project Summary), 1814 (Primary HTS)]; format: functional
H4 = test: Luminescence Cell-Based Dose Response HTS to Identify Activators of 5'UTR Stem-Loop Driven Prion Protein mRNA Translation in H4 Neuroglioblastoma Cells. [Related pubchem assays: 1829 (Project Summary), 1814 (Primary HTS)]; format: functional; settings: Homo sapiens
[4] = molecular target: T1, DNA repair and recombination protein RAD54-like (Homo sapiens, UniProt Q92698); test: inhibitors of human RAD54 branch migration, confirmation, biochemical, fluorescence, cherry-picked samples, dose series (AID 651657); format: functional
T1 sequence (Q92698 whole entry): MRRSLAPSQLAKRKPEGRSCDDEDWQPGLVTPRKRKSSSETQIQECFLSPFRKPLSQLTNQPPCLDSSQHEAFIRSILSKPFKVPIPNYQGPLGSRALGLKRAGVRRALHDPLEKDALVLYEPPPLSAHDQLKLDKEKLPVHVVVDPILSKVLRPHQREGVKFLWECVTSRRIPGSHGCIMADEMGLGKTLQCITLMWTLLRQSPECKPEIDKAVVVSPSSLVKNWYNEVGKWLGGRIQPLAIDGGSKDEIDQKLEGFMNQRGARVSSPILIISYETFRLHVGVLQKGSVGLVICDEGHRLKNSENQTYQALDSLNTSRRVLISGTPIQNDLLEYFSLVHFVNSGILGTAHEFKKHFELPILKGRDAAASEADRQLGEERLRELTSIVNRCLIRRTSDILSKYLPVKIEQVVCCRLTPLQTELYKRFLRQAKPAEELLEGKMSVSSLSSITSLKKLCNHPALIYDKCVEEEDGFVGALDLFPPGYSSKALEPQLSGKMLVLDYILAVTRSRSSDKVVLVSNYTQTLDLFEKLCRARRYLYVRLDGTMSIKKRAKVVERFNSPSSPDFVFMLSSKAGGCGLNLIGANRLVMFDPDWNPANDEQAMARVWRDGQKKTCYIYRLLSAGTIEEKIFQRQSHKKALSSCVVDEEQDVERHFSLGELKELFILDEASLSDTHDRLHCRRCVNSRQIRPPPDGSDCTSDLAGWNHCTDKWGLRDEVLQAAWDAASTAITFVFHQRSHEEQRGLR

[5] = molecular target: T2, DNA repair protein RAD52 homolog (Homo sapiens, UniProt P43351); format: functional, biochemical
T2 sequence (P43351 whole entry): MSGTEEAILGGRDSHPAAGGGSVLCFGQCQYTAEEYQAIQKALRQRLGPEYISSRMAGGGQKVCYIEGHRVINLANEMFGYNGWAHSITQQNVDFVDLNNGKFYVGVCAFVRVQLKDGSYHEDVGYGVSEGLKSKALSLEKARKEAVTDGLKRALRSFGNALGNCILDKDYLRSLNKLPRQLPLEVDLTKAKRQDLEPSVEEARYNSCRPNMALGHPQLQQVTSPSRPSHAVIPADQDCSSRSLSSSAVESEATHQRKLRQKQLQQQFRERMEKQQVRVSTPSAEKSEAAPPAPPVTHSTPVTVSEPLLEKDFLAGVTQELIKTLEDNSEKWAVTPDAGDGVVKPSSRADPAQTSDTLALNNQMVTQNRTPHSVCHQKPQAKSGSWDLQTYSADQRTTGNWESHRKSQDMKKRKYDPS

[6] = DNA binding of candidate compounds, dose response, artefact control for RAD54 inhibitor project, biochemical, fluorescence polarization, cherry-pick (AID 651673); format: functional
[7] = Counterscreen for activators of the function of SWI/SNF related, matrix associated, actin dependent regulator of chromatin, subfamily a, member 2 (SMARCA2, BRM): Luminescence-based cell-based high throughput dose response assay to identify non-selective compounds using the VP16 reporter assay.; format: functional
cells [8] = format: functional, cell-based
cells [9] = format: functional, cell-based; remark: listed apart in the source
[10] = HeLa cell cytotoxicity, dose response, cytotoxicity control for MgcRacGAP inhibitor project (AID 624300); format: functional
[11] = molecular target: T3, Rac GTPase-activating protein 1 (Homo sapiens, UniProt Q9H0H5); test: MgcRacGAP GTPase-activating activity inhibitors, confirmation, biochemical, ADP Hunter fluorescence, primary and confirmatory (AID 624330); format: functional
T3 sequence (Q9H0H5 whole entry): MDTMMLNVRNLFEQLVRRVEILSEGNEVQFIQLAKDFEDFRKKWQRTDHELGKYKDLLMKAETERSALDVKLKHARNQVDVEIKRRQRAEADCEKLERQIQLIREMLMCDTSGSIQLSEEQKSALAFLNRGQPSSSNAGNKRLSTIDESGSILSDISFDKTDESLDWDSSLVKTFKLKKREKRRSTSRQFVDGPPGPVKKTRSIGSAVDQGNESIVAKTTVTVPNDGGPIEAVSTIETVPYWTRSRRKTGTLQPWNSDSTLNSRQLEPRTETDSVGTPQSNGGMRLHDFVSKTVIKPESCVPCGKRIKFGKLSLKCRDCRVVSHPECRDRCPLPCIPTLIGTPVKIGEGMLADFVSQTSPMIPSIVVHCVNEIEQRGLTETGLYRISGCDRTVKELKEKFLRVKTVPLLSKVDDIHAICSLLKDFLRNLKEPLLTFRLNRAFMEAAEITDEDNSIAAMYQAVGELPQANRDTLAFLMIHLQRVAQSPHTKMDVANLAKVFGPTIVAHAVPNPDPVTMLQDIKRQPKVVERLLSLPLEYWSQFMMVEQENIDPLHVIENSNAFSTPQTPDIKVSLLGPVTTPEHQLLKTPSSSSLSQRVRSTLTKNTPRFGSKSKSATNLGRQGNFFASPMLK

[12] = molecular target: Glucose-6-phosphate 1-dehydrogenase (Homo sapiens, UniProt P11413); test: human G6PD enzyme inhibitors, dose response, selectivity assay for P. falciparum G6PD inhibitor project, biochemical, fluorescence (AID 504792); format: functional
Glucose-6-phosphate 1-dehydrogenase, sequence (P11413 whole entry, the tested form may be a part): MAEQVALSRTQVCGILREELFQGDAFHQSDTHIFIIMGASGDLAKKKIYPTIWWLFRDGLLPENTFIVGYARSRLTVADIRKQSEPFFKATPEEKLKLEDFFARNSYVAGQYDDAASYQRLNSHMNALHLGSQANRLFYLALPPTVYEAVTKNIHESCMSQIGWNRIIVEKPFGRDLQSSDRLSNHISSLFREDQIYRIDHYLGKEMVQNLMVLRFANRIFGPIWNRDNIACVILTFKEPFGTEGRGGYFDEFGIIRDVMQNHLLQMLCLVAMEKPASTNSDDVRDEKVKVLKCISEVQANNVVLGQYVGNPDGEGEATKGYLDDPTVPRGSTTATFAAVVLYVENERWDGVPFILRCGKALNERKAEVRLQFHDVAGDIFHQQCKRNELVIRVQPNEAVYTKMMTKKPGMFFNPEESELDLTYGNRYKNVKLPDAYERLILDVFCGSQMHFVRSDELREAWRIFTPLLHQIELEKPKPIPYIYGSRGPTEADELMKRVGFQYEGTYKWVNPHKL

[13] = CEM21 lymphoblast cell cytotoxicity, dose response, cytotoxicity control for viral fusion inhibitor project, CellTiter-Glo luminescence, cherry-picked (AID 652042); format: functional, cell-based;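 also: potency for signal decrease meaning cytotoxicity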
[14] = off-target signal loss in HeLa-CEM21 co-culture – HeLa F-luc CTL cells, cherry-picked, counter-screen for HIV-1 Env fusion inhibitor project, dose response (AID 652040); format: functional, cell-based;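 also: potency for signal decrease marking cytotoxic or nonspecific inhibition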
BJ [15] = test: cytotoxicity toward Ras-transformed BJeLR fibroblasts, dose response, cell-based, alamar blue fluorescence, cherrypicked samples (AID 2631); format: functional; settings: Homo sapiens;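 also: confirmatory dose-response assay in RAS-dependent BJ fibroblasts engineered with TERT, LT and ST, with cytotoxicity read by fluorescence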
BJ [16] = test: cytotoxicity toward BJ-TERT fibroblasts, dose response, cell-based, RAS-independent, luminescence (AID 1933); format: functional; settings: Homo sapiens
BJ [17] = test: cytotoxicity toward BJ-TERT-LT-ST fibroblasts, dose response, cell-based, RAS-independent, luminescence (AID 1935); format: functional; settings: Homo sapiens;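 also: BJ fibroblasts immortalized with TERT plus LT and ST oncogenes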
[18] = inhibitors of clade B AD8 Env fusion, dose response, cell-based, cherry-pick (AID 652062); format: functional;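 also: luciferase signal from cell-cell fusion driven by HIV-1 clade B AD8 Env; potency is for inhibitors of fusion seen as a drop in luminescence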
BJ [19] = test: cells; format: functional, cell-based; settings: Homo sapiens
[20] = inhibitors of HIV Env-driven cell fusion, dose response, cherry-pick (AID 652057); format: functional, cell-based
[21] = cytotoxicity toward DRD oncogenic fibroblasts, dose response, cell-based, non-viral oncogenic, luminescence (AID 1934); format: functional; settings: Homo sapiens
Steroidogenic factor 1 = Steroidogenic factor 1 (Homo sapiens, UniProt Q13285); test: Counterscreen for inverse agonists of the liver receptor homolog-1 (LRH-1; NR5A2): Luminescence-based cell-based high throughput dose response assay to identify inverse agonists of the Steroidogenic Factor 1 Nuclear Receptor (SF1; NR5A1).; format: functional
Steroidogenic factor 1, sequence (Q13285 whole entry): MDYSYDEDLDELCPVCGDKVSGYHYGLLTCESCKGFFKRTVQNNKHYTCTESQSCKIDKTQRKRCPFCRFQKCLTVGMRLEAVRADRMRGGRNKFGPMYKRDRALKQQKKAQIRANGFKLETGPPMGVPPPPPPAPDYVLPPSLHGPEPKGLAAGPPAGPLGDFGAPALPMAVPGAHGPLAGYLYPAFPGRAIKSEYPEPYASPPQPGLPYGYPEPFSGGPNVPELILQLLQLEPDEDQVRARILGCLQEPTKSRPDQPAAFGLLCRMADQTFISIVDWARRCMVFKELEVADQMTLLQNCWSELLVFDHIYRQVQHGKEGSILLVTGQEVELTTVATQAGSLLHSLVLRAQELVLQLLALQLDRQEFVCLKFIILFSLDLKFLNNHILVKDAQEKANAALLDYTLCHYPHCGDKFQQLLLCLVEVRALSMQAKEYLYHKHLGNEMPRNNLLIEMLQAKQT

[22] = molecular target: Nuclear receptor subfamily 5 group A member 2 (Homo sapiens, UniProt O00482); format: functional, cell-based;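 also: HEK293T cells transfected with LRH-1 and a StAR promoter luciferase reporter; potency for inhibitors that lower LRH-1 driven reporter light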
Nuclear receptor subfamily 5 group A member 2, sequence (O00482 whole entry): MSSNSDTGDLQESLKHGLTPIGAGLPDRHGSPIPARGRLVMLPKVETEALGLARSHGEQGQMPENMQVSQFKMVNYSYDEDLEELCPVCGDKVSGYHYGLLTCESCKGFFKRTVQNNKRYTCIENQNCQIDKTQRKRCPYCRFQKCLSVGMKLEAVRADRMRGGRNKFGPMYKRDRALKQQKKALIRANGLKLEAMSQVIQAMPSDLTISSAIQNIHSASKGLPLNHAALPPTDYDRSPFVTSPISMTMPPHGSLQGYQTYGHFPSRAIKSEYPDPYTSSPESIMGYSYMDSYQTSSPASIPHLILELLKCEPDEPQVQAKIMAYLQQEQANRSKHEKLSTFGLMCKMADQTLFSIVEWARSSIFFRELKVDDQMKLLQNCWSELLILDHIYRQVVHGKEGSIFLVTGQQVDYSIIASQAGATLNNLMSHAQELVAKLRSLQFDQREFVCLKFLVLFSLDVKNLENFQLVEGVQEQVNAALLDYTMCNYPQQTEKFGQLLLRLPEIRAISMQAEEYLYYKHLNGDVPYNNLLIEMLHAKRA

[23] = StAR promoter reporter inhibition counter-screen, dose response, counter-screen for LRH-1 inverse agonist project, cell-based, luminescence, luciferase reporter (AID 651969); format: functional
[24] = molecular target: T4, RNA-binding protein pos-1 (Caenorhabditis elegans, UniProt G5EF15); test: inhibitors of POS-1/mex-3 RNA binding, dose response, biochemical, fluorescence polarization (AID 1964);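 also: purified POS-1 fused to maltose binding protein made in E. coli; potency of compounds blocking POS-1 binding to fluorescent RNA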
T4 sequence (G5EF15 whole entry): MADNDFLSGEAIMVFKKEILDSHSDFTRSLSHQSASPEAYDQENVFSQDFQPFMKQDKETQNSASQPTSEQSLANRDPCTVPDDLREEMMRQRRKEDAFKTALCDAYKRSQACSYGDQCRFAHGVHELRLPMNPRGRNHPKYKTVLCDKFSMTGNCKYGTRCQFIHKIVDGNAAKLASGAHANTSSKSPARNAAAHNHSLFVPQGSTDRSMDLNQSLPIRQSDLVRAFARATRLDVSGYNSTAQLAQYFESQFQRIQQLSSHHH

[25] = molecular target: T5, Zinc finger protein mex-5 (Caenorhabditis elegans, UniProt Q9XUB2); test: MEX-5/TCR-2 RNA interaction inhibitors, dose response, biochemical, C. elegans, fluorescence polarization (AID 1960)
T5 sequence (Q9XUB2 whole entry): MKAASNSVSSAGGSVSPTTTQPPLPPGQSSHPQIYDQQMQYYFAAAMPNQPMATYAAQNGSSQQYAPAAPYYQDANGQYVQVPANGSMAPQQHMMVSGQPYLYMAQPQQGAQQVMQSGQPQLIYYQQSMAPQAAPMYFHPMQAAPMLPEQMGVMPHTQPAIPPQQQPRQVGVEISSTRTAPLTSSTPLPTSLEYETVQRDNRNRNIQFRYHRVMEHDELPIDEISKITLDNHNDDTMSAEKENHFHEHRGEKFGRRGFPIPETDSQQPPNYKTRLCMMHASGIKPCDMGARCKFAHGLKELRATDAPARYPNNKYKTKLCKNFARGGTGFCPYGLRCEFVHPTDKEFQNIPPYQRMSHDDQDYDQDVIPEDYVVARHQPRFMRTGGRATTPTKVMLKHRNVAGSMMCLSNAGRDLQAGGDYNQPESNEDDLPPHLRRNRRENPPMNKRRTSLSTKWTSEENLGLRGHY

Mu-type opioid receptor, sequence (P35372 whole entry): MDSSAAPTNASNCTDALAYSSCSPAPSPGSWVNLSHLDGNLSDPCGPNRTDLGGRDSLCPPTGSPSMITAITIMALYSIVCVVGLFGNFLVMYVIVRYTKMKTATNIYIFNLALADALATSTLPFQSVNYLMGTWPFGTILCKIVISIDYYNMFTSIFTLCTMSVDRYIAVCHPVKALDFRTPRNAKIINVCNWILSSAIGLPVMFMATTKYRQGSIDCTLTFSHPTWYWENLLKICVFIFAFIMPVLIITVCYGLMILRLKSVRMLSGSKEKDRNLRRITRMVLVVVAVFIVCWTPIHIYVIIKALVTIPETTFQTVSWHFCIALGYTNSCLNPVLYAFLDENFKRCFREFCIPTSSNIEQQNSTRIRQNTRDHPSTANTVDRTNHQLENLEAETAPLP

## Cc1cccc(CN2CCN(c3ccccn3)CC2)c1
Mu-type opioid receptor
  EC50: 92.5 µM (inactive)
[1]
  EC50: 0.128 µM (active)

## O=C(/C=C/c1ccc(Cl)cc1)N1CCN(c2ccccc2[N+](=O)[O-])CC1
Beta-galactosidase
  IC50: > 80 µM (inactive)

## CCN(CC)CCCNc1nc2ccccc2c2nc(-c3ccncc3)nn12
[2]
  EC50: 32.5 µM (inactive)
[3]
  EC50: 16.5 µM (active)
H4
  EC50: > 120 µM (not active)
[4]
  AC50: 6.19 µM (active)
[5]
  AC50: 10.4 µM (active)
[6]
  AC50: 40.4 µM (active)
[7]
  EC50: > 91.2 µM (inactive)

## Cc1cc(C)c2c(=O)n3c(nc2c1)C(CC(C)C)NC(=O)c1cc2ccccc2cc1-3 (stereo unspecified)
Beta-galactosidase
  IC50: > 80 µM (inactive)

## Oc1cc(C=NNc2ccccc2)nc(O)n1
Cells [8]
  EC50: > 29.9 µM (inactive)
Cells [9]
  IC50: > 29.9 µM (inactive)

## Cn1c(=O)c2c(nc(S)n2CCCc2ccccc2)n(C)c1=O
[10]
  CC50: 100 µM (active)
[11]
  IC50: 16.1 µM (active)
[12]
  IC50: 60.7 µM (inactive)

## COc1ccc2nc(O)c(CN(Cc3cccs3)S(=O)(=O)c3cccc4nsnc34)cc2c1
[13]
  AC50: 38.4 µM (active)
[14]
  AC50: 16.9 µM (active)
BJ [15]
  EC50: 1.62 µM (active)
BJ [16]
  EC50: 21.1 µM (active)
BJ [17]
  EC50: > 150 µM (not active)
[18]
  AC50: 3.31 µM (active)
BJ [19]
  EC50: 25.6 µM (inconclusive)
[20]
  AC50: 4.12 µM (active)
[21]
  EC50: 14.5 µM (active)

## Cc1nn(Cc2ccccc2)c(C)c1C(=O)OCC(=O)Nc1ccccc1SCC#N
Steroidogenic factor 1
  IC50: 2.41 µM (active)
[22]
  IC50: 1.33 µM (active)
[23]
  IC50: 35.9 µM (inactive)

## O=C1NC(=O)N(c2ccccc2)C(=O)/C1=C/c1coc2ccc(O)cc2c1=O
[24]
  EC50: > 300 µM (not active)
[25]
  EC50: > 300 µM (not active)
[10]
  CC50: 100 µM (active)
[11]
  IC50: 110 µM (active)

## COc1ccc(CCNC(=O)COC(=O)C23CC4CC(CC(C4)C2)C3)cc1
Steroidogenic factor 1
  IC50: 2.17 µM (active)
[22]
  IC50: 28.6 µM (inactive)
[23]
  IC50: 35.9 µM (inactive)

## CN(Cc1ccc(F)cc1)C(=O)COc1ccc2ccccc2c1
Beta-galactosidase
  IC50: > 80 µM (inactive)
